The target of this test is T1, Dimer of Gag-Pol polyprotein [489-587] (Human immunodeficiency virus 1, UniProt P12497).
T1 construct: 489-587
Description: Protease Inhibition Assay. The note with it: pH 5.5; 30 °C. As to the method:
The IC50 values for the compounds were determined using purified HIV-1 Protease. Inhibition of the cleavage of the peptide H-Val-Ser-Gln-Asn-(L-beta-napthylalanine)-Pro-Ile-Val-OH was assessed at 30 °C, pH = 5.5 with [Enzyme] = 30 pM for 1 h, using HPLC with UV detection for quantification of the products. For the IC50 data a substrate concentration of 0.4 mg/mL was used, and data was fit to a four parameter sigmoidal equation.

By IC50 is commonly meant the concentration needed to halve the response being measured.

`CC(C)(C)NC(=O)[C@@H]1C[C@@H]2CCCC[C@@H]2CN1C[C@@H](O)[C@H](Cc1ccccc1)NC(=O)O[C@@H]1CO[C@@H]2CCO[C@@H]21` [(3R,3aS,6aR)-hexahydrofuro[3,2-b]furan-3-yl N-[(2S,3R)-4-[(3S,4aS,8aS)-3-(tert-butylcarbamoyl)-decahydroisoquinolin-2-yl]-3-hydroxy-1-phenylbutan-2-yl]carbamate] returned an IC50 of more than 3 µM.

Values taken from BindingDB's records for doi:10.1021/jm960128k (University of Illinois At Chicago, 1996).
